These are literature values, as cited in patent publication US20070293698A1, “Compositions of Allosteric Hemoglobin Modifiers and Methods of Making the Same” (ALLOS THERAPEUTICS, INC., priority 2004, published 2007).

Data set [1] deals with EMT6 mouse mammary tumors. As to conditions: efaproxiral plus oxygen breathing, Rockwell and Kelley 1998.
The next data set has as its target hemoglobin (Homo sapiens, UniProt P68871+P69905). The note with it: in vivo.
In a further data set the test system is mouse fibrosarcoma tumor. As to conditions: combination of efaproxiral and radiation relative to radiation alone; Teicher 1996, Khandelwal 1996.
The next data set concerns Lewis lung carcinoma. The note with it: mice bearing the Lewis lung carcinoma; Teicher 1996.

Chain of hemoglobin (P69905 2-142 limits assumed): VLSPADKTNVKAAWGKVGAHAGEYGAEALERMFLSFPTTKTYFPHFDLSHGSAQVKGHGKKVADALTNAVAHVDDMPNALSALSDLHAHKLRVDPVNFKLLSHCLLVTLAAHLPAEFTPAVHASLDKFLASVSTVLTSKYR
Chain of hemoglobin (P68871 2-147 limits assumed): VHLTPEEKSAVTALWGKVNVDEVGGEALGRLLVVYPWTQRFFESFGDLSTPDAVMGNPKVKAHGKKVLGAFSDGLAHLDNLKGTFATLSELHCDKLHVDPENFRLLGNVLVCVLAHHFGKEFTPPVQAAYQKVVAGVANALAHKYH

As to `Cc1cc(C)cc(NC(=O)Cc2ccc(OC(C)(C)C(=O)O)cc2)c1` [efaproxiral, 2-[4-((((3,5-dimethylphenyl)amino)carbonyl)methyl)phenoxy]-2-methyl propionic acid], the “effect of radiation in tumors” value in data set [1] (EMT6 tumors) was “Enhancement of the effect of radiation was observed”. In data set [1] (normal tissues), the “radiation effects in normal tissues” value was “absence of enhanced radiation effects in normal tissues”. The tissue oxygenation entry at hemoglobin was “enhance tissue oxygenation in vivo”. Moreover, the tumor growth entry in the data set on mouse fibrosarcoma tumor is reported as “tumor growth has been shown to be reduced”. The “effect on fractionated radiation therapy” value in the data set with Lewis lung carcinoma was “enhance fractionated radiation therapy”.
